Values quoted from earlier work as cited in US20050272717A1, “Treatment of aromatase inhibitor therapy-related osteoporosis” (priority 2004, published 2005).

Experiments:
[1] = system: bone; details: preclinical studies
[2] = system: breast cancer cells

What does the source list for Cc1c(-c2ccc(O)cc2)n(Cc2ccc(OCCN3CCCCCC3)cc2)c2ccc(O)cc12 [bazedoxifene, 1-[4-(2-azepan-1-yl-ethoxy)-benzyl]-2-(4-hydroxy-phenyl)-3-methyl-1H-indol-5-ol]?
compressive bone strength [1]: improved; histomorphometric profile ([1]; compared with raloxifene): superior to that of raloxifene; estradiol-stimulated proliferation of breast cancer cells [2]: inhibits
